Results: article PMC5516229 (2017)
Values belong to the compound of their own block, whether it stands above or below them.

Assays:
[1] = test system: G1 (DNA, G4) AGGGTTAGGGTTAGGGTTAGGG; test: UV/Vis titration; conditions: 10 mM Tris-HCl pH 7.04, 20 μM complex, apparent, per base pair
[2] = test system: G2T4 (DNA, G4) AGGGTTAGGGTTAGGGTTAGGGTTATTATTATTAGGGTTAGGGTTAGGGTTAGGG; test: CD melting, 295 nm; conditions: 100 mM NaCl, 10 mM Tris-HCl pH 7.04
[3] = test system: G1 (DNA, G4) AGGGTTAGGGTTAGGGTTAGGG; test: native gel electrophoresis; conditions: 100 mM NaCl; 10 mM Tris-HCl pH 7.04; 16 μM DNA, 32 μM complex
[4] = test system: G2T1 (DNA, G4) AGGGTTAGGGTTAGGGTTAGGGTTAGGGTTAGGGTTAGGGTTAGGG; test: native gel electrophoresis; conditions: 100 mM NaCl, 10 mM Tris-HCl pH 7.04, 8 μM DNA
[5] = test system: G2T2 (DNA, G4) AGGGTTAGGGTTAGGGTTAGGGTTATTAGGGTTAGGGTTAGGGTTAGGG; test: CD melting, 295 nm; conditions: 100 mM NaCl, 10 mM Tris-HCl pH 7.04
[6] = test system: G2T6 (DNA, G4) AGGGTTAGGGTTAGGGTTAGGGTTATTATTATTATTATTAGGGTTAGGGTTAGGGTTAGGG; test: CD melting, 295 nm; conditions: 100 mM NaCl, 10 mM Tris-HCl pH 7.04
[7] = test system: G1 (DNA, G4) AGGGTTAGGGTTAGGGTTAGGG; test: CD melting, 295 nm; conditions: 100 mM NaCl, 10 mM Tris-HCl pH 7.04
[8] = test system: G2T1 (DNA, G4) AGGGTTAGGGTTAGGGTTAGGGTTAGGGTTAGGGTTAGGGTTAGGG; test: UV/Vis titration; conditions: 10 mM Tris-HCl pH 7.04, 20 μM complex, apparent, per base pair
[9] = test system: G2T1 (DNA, G4) AGGGTTAGGGTTAGGGTTAGGGTTAGGGTTAGGGTTAGGGTTAGGG; test: CD melting, 295 nm; conditions: 100 mM NaCl, 10 mM Tris-HCl pH 7.04, 2.5 μM DNA
[10] = test system: Ap13+Ap37 (DNA, G4, 2-aminopurine at 13 and 37) AGGGTTAGGGTTAGGGTTAGGGTTAGGGTTAGGGTTAGGGTTAGGG; test: 2-aminopurine fluorescence quenching; conditions: 100 mM NaCl; 10 mM Tris-HCl pH 7.04, 25 °C; 5 μM DNA
[11] = test system: Ap7 (DNA, G4, 2-aminopurine at 7) AGGGTTAGGGTTAGGGTTAGGGTTAGGGTTAGGGTTAGGGTTAGGG; test: 2-aminopurine fluorescence quenching; conditions: 100 mM NaCl; 10 mM Tris-HCl pH 7.04, 25 °C; 5 μM DNA
[12] = test system: Ap31 (DNA, G4, 2-aminopurine at 31) AGGGTTAGGGTTAGGGTTAGGGTTAGGGTTAGGGTTAGGGTTAGGG; test: 2-aminopurine fluorescence quenching and Job's plot; conditions: 100 mM NaCl; 10 mM Tris-HCl pH 7.04, 25 °C; Job's plot at 3 μM total
[13] = test system: Ap37 (DNA, G4, 2-aminopurine at 37) AGGGTTAGGGTTAGGGTTAGGGTTAGGGTTAGGGTTAGGGTTAGGG; test: 2-aminopurine fluorescence quenching; conditions: 100 mM NaCl; 10 mM Tris-HCl pH 7.04, 25 °C; 5 μM DNA
[14] = test system: Ap7+Ap31 (DNA, G4, 2-aminopurine at 7 and 31) AGGGTTAGGGTTAGGGTTAGGGTTAGGGTTAGGGTTAGGGTTAGGG; test: 2-aminopurine fluorescence quenching; conditions: 100 mM NaCl; 10 mM Tris-HCl pH 7.04, 25 °C; 5 μM DNA
[15] = test system: Ap13 (DNA, G4, 2-aminopurine at 13) AGGGTTAGGGTTAGGGTTAGGGTTAGGGTTAGGGTTAGGGTTAGGG; test: 2-aminopurine fluorescence quenching; conditions: 100 mM NaCl; 10 mM Tris-HCl pH 7.04, 25 °C; 5 μM DNA
[16] = 2:1 complex per G-quadruplex unit (4:1 per strand)

Ka ([1]; 100 mM KCl, 370 nm): 1.15±0.18×10^7 M^-1
Ka ([1]; 100 mM NaCl, 370 nm): 4.62±0.64×10^6 M^−1
Δ T m [2, 16]: 25.5 °C
binding [3]: yes
binding ([4]; 32 μM complex): yes
Δ T m [5, 16]: 25.1 °C
Δ T m [6, 16]: 23.5 °C
Δ T m ([7]; complex:DNA 2:1): 13.4 °C
Ka ([8]; 100 mM KCl, 310 nm): 1.50±0.22×10^7 M^-1
Ka ([8]; 100 mM NaCl, 310 nm): 2.34±0.32×10^7 M^−1
Δ T m ([9]; 10 μM complex (4:1)): 20.8 °C
Compound: [Ni+2].[O-]c1cc(OCCN2CCCCC2)ccc1C=Nc1ccccc1N=Cc1ccc(OCCN2CCCCC2)cc1[O-]

Ka ([1]; 100 mM KCl, 310 nm): 3.53±0.33×10^6 M^-1
Ka ([1]; 100 mM NaCl, 310 nm): 8.30±0.75×10^5 M^−1
Ka ([8]; 100 mM KCl, 310 nm): 2.52±0.24×10^6 M^-1
Ka ([8]; 100 mM NaCl, 310 nm): 2.06±0.40×10^6 M^−1
Δ T m ([9]; 5 μM complex (2:1)): 8.4 °C
Compound: [Ni+2].[Ni+2].[O-]c1cc(OCCN2CCCCC2)ccc1C=Nc1ccc(OCCOCCOCCOc2ccc(N=Cc3ccc(OCCN4CCCCC4)cc3[O-])c(N=Cc3ccc(OCCN4CCCCC4)cc3[O-])c2)cc1N=Cc1ccc(OCCN2CCCCC2)cc1[O-]

Ka ([1]; 100 mM KCl, 370 nm): 2.19±0.32×10^6 M^-1
Ka ([1]; 100 mM NaCl, 370 nm): 1.05±0.20×10^6 M^−1
Δ T m ([2]; complex:DNA 2:1): 8.1 °C
binding [10]: yes
binding [11]: yes
binding [12]: yes
binding ([4]; 16 μM complex): yes
binding [13]: yes
binding [14]: yes
Δ T m ([5]; complex:DNA 2:1): 11.9 °C
binding [15]: yes
Δ T m ([6]; complex:DNA 2:1): 6.3 °C
Δ T m ([7]; complex:DNA 1:1): 2.0 °C
Ka ([8]; 100 mM KCl, 370 nm): 1.37±0.25×10^7 M^-1
Ka ([8]; 100 mM NaCl, 370 nm): 3.15±0.42×10^7 M^−1
Δ T m ([9]; 5 μM complex (2:1)): 14.1 °C
Compound: [Ni+2].[Ni+2].[O-]c1cc(OCCN2CCCCC2)ccc1C=Nc1ccc(OCCOCCOCCOCCOc2ccc(N=Cc3ccc(OCCN4CCCCC4)cc3[O-])c(N=Cc3ccc(OCCN4CCCCC4)cc3[O-])c2)cc1N=Cc1ccc(OCCN2CCCCC2)cc1[O-]

Ka ([1]; 100 mM KCl, 310 nm): 2.39±0.35×10^6 M^-1
Ka ([1]; 100 mM NaCl, 370 nm): 1.27±0.24×10^6 M^−1
Ka ([8]; 100 mM KCl, 310 nm): 1.19±0.16×10^6 M^-1
Ka ([8]; 100 mM NaCl, 310 nm): 1.08±0.24×10^6 M^−1
Δ T m ([9]; 5 μM complex (2:1)): 7.7 °C
Compound: [Ni+2].[Ni+2].[O-]c1cc(OCCN2CCCCC2)ccc1C=Nc1ccc(OCCOCCOc2ccc(N=Cc3ccc(OCCN4CCCCC4)cc3[O-])c(N=Cc3ccc(OCCN4CCCCC4)cc3[O-])c2)cc1N=Cc1ccc(OCCN2CCCCC2)cc1[O-]
